Patent publication US7674819B2 (Warner-Lambert Company LLC, priority 2005, dated 2010)
Like-named read-outs stand apart in the source and are kept apart here.

Legend:
hAR = molecular target: T1, hAR (Homo sapiens, UniProt P10275); test: Competitive binding of 3H-DHT to baculovirus/Sf9 generated hAR extracts; settings: one hour at 4° C., mean of multiple tests
T1 sequence (P10275 1-920): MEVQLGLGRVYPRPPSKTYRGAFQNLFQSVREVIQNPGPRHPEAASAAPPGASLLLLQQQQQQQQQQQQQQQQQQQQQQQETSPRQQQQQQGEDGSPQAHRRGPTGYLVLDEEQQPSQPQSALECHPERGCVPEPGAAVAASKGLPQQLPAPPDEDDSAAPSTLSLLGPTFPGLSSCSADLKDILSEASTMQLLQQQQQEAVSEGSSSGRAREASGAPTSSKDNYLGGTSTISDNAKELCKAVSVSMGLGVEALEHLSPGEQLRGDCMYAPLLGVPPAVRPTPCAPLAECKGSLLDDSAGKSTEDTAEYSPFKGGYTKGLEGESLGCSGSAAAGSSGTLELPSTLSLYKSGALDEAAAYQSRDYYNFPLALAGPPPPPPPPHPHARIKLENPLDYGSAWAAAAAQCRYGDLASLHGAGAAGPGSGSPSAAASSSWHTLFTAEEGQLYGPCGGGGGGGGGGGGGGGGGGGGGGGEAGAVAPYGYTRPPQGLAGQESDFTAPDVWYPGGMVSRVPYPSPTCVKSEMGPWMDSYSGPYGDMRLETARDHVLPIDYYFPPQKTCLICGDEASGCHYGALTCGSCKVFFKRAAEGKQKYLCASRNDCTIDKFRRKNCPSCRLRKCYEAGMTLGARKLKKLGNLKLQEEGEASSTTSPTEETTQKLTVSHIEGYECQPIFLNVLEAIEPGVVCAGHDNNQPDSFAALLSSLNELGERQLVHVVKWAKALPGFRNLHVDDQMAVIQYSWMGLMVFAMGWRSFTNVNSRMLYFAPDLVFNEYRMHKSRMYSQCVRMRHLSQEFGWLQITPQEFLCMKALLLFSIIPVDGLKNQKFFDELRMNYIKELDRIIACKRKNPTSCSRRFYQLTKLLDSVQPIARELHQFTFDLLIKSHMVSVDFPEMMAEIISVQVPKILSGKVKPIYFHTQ
How it was run: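 Baculovirus/Sf9-expressed hAR extract incubated with test compound, hydroxylapatite and 1 nM 3H-DHT tracer for 1 h at 4° C, then washed free of unbound tracer. Affinity given as concentration inhibiting half of maximal 3H-DHT binding.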

male Syrian hamsters = test: Animal Model for Inhibition of Sebum Production (hamster ear, HPLC of sebum lipids); format: in vivo, Syrian hamster; settings: twice daily, five days a week, 4 weeks; for % CE reduction: cholesterol ester vs vehicle control; for % WE reduction: wax ester vs vehicle control
Protocol: Luderschmidt et al describes an animal model for testing whether compounds are capable of modulating sebum secretion. Arch. Derm. Res. 258, 185-191 (1977). This model uses male Syrian hamsters, whose ears contain sebaceous glands. Based on binding data and cellular assay data, selected compounds were chosen for screening in this model. Those compounds included the products of Examples 1, 20, 81, 82, and 109.
Testing for sebum inhibition was carried out in the following manner. Male Syrian hamsters aged 9 to 10 weeks were introduced into the laboratory environment and acclimated for 2 weeks prior to use in the study. Each group consisted of 5 animals and run in parallel with vehicle and positive controls. Prior to administration, a sufficient quantity each compound was dissolved in 1 mL of a solvent consisting of ethanol, transcutol, and propylene glycol (60/20/20% v/v/v) to achieve the final concentration specified in Table VIII below.
Animals were dosed topically twice daily, five days a week, for 4 weeks. Each dose consisted of 25 micro liters of vehicle control or drug. The dose was applied to the ventral surfaces of both the right and left ears. All animals were sacrificed approximately 18-24 hours after the final dose. The right ears were collected from each animal and used for sebum analysis.
The ears were prepped for HPLC analysis in the following manner. One 8 mm distal biopsy punch was taken, just above the anatomical “V” mark in the ear to normalize the sample area. The punch was pulled apart. The ventral biopsy surface (the area where the topical dose was directly applied to the sebaceous glands) was retained for testing and the dorsal surface of the biopsy punch was discarded.
Tissue samples were blown with N2 gas and stored at −80° C. under nitrogen until HPLC analysis. In addition to ear samples, an aliquot of each drug and vehicle (at least 250 ul) was also stored at −80° C. for inclusion in the HPLC analysis.
HPLC analysis was carried out on an extract of the tissue sample. Tissue samples were contacted with 3 ml of solvent (a 4:1 admixture of 2,2,4-trimethylpentane and isopropyl alcohol). The mixture was shaken for 15 minutes and stored overnight at room temperature, protected from light. The next morning 1 milliliter of water was added to the sample and shaken for 15 minutes. The sample was then centrifuged at approximately 1500 rpm for 15 minutes. Two ml of the organic phase (top layer) was transferred to a glass vial, dried at 37° C., under nitrogen, for approximately 1 hour, and then lyophilized for approximately 48 hours. The samples were then removed from the lyophilizer and each vial was reconstituted with 600 μl of solvent A (trimethylpentane/tetrahydrofuran (99:1). The samples were then recapped and vortexed for 5 minutes.
200 μl of each sample was then transferred to a pre-labeled 200 μl HPLC vial with 200 μL glass inserts. The HPLC vials were placed in the autosampler tray for the Agilent 1100 series HPLC unit. The Agilent 1100 HPLC system consisted of a thermostated autosampler, a quaternary pump, a column heater, and an A/D interface module. All components were controlled by Agilent ChemStation software. A Waters Spherisorb S3W 4.6×100 mm analytical column was maintained at 30° C. by the Agilent column heater unit.
The HPLC autosampler was programmed to maintain the sample temperature at 20 C throughout the run.
10 uL of each sample was injected in triplicate into the column. Two solvents were used for the solvent gradient. Solvent A was an admixture of trimethylpentane and tetrahydrofuran (99:1). Solvent B was ethylacetate. The gradient utilized is described in the table below: […]
The Sedex 75 Evaporative Light Scattering Detector (ELSD) was operated at 45° C. with a gain of 5, and N2 pressure maintained at 3.1 bar. Analog signal obtained by the instrument was sent to the Agilent A/D interface module where it was converted to a digital output. […]

[1] = IC50, concentration at which one half of maximum binding of 1 nM 3H-DHT to hAR is inhibited
[2] = concentration at which one half of maximum binding of 1 nM 3H-DHT to hAR is inhibited, read-out: IC50

| Structure (SMILES) | IC50 (hAR; [1]) [nM] | % CE reduction (male Syrian hamsters; topical 2%) [%] | Sum of WE & CE (male Syrian hamsters; topical 2%) | % WE reduction (male Syrian hamsters; topical 2%) [%] | % CE reduction (male Syrian hamsters; topical 1%) [%] | Sum of WE & CE (male Syrian hamsters; topical 1%) | % WE reduction (male Syrian hamsters; topical 1%) [%] | % CE reduction (male Syrian hamsters; topical 3%) [%] | Sum of WE & CE (male Syrian hamsters; topical 3%) | % WE reduction (male Syrian hamsters; topical 3%) [%] | IC50 (hAR; [2]) [nM] |
| --- | --- | --- | --- | --- | --- | --- | --- | --- | --- | --- | --- |
| CCCCN1CC(C)(C)C(Oc2ccc(C#N)c(C(F)(F)F)c2)C1=O (single isomer, unassigned; (+)) [Example 20, (+)-4-(1-Butyl-4,4-dimethyl-2-oxo-pyrrolidin-3-yloxy)-2-trifluoromethyl-benzonitrile] | 97 | 83 | 149 | 66 |  |  |  |  |  |  |  |
| CCCS(=O)(=O)N1CC(C)(C)C(Oc2ccc(C#N)c(C(F)(F)F)c2)C1=O (single isomer, unassigned; (+)) [Example 82, (+)-4-[4,4-Dimethyl-2-oxo-1-(propane-1-sulfonyl)-pyrrolidin-3-yloxy]-2-trifluoromethyl-benzonitrile] | 47 |  |  |  | 72 | 129 | 57 |  |  |  |  |
| CC[C@H](C)N1CC(C)(C)[C@@H](Oc2ccc(C#N)c(C(F)(F)F)c2)C1=O [Example 1, (3R,S)-(+)-4-(1-sec-Butyl-4,4-dimethyl-2-oxo-pyrrolidin-3-yloxy)-2-trifluoromethyl-benzonitrile] | 136 |  |  |  | 70 | 125 | 55 |  |  |  |  |
| CCCN1CC(C)(C)C(Oc2ccc(C#N)c(C(F)(F)F)c2)C1=O (stereo not shown) [Example 4, 4-(4,4-dimethyl-2-oxo-1-propyl-pyrrolidin-3-yloxy)-2-trifluoromethyl-benzonitrile] | 188 |  |  |  |  |  |  | 76 | 166 | 90 |  |
| CCCN1CC(C)(C)[C@@H](Oc2ccc(C#N)c(C(F)(F)F)c2)C1=O [Example 4A, (+)-4-(1-Propyl-4,4-dimethyl-2-oxo-pyrrolidin-3-yloxy)-2-trifluoromethyl-benzonitrile (E2)] | 230 |  |  |  | 76 | 161 | 85 |  |  |  |  |
| CC1(C)CN(S(C)(=O)=O)C(=O)C1Oc1ccc(C#N)c(C(F)(F)F)c1 (stereo not shown) [Example 81, 4-(1-methanesulfonyl-4,4-dimethyl-2-oxo-pyrrolidin-3-yloxy)-2-trifluoromethyl-benzonitrile] |  |  |  |  | 12 | 20 | 8 |  |  |  | 139 |
| CC(c1ccccc1)N1CC(C)(C)C(Oc2ccc(C#N)cc2Cl)C1=O (stereo not shown) [Example 109] |  |  |  |  | 64 | 116 | 52 |  |  |  | 203 |
